Data on 23 compounds can be found in ChEMBL document CHEMBL2311490 (Bioorg Med Chem Lett, 2013).

The species entered for experiment [1] is Xenopus laevis. The experiment is described as follows: Antimelanogenic activity in Xenopus laevis tadpoles assessed as melanophore aggregation by microscopy relative to melatonin. Format: functional.
The species entered for experiment [2] is Xenopus laevis. Nature of the experiment: Antimelanogenic activity in Xenopus laevis tadpoles assessed as melanophore aggregation by microscopy. It is filed as functional, organism-based.
Experiment [3] deals with Melatonin receptor type 1A (Homo sapiens, UniProt P48039). Nature of the experiment: Displacement of [125I]2-iodomelatonin from human recombinant MT1 receptor expressed in HEK293 cells after 2 hrs by gamma counting. It is filed as cell-based.
In experiment [4] the target is T1, Melatonin receptor type 1B (Homo sapiens, UniProt P49286).
T1 sequence (P49286 whole entry): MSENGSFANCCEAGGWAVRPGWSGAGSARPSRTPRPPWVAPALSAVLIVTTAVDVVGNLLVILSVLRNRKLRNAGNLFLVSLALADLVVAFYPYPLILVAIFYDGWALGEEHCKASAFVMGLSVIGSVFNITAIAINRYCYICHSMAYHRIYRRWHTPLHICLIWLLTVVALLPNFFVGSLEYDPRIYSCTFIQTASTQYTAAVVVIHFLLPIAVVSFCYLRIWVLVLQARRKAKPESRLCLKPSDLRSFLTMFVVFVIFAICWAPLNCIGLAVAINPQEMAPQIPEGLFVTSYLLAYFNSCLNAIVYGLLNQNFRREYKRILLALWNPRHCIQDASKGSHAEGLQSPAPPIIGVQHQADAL
The experiment is described as follows: Displacement of [125I]2-iodomelatonin from human recombinant MT2 receptor expressed in HEK293 cells after 2 hrs by gamma counting. Format: cell-based. For orientation: Loss of bound radioactivity is the signal in a displacement assay; it reports binding, not function.

Experiment [5] in a line: Displacement of [125I]2-iodomelatonin from melatonin receptor in chicken brain membranes after 60 mins by gamma counting. Format: cell membranes, Gallus gallus, Membrane.
The species entered for experiment [6] is Xenopus laevis. Nature of the experiment: Ratio of melatonin EC50 to compound EC50 for antimelanogenic activity in Xenopus laevis tadpoles assessed as melanophore aggregation by microscopy. Format: functional.

For orientation: EC50 means the midpoint of the concentration-response curve. By Ki is commonly meant the dissociation constant of the complex between target and ligand, obtained from inhibition or displacement.

Sequence of Melatonin receptor type 1A (P48039 whole entry): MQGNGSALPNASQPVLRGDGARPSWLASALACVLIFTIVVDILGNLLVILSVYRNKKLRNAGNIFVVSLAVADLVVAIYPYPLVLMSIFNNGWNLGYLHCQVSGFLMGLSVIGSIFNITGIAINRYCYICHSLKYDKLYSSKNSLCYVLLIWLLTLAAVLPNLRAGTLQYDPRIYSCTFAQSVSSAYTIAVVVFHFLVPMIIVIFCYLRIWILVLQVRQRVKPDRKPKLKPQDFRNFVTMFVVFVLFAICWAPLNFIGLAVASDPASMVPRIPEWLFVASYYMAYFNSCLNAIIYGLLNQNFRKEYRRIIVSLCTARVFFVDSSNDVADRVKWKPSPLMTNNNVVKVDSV

As for `COc1ccc2cccc([C@@H]3C[C@H]3NC(C)=O)c2c1` (racemic), the “fold change (FC)” value in the experiment listed under Xenopus laevis [1] came to 0.017. Moreover, the EC50 in the experiment filed under Xenopus laevis [2] is 155 nM. Also, the figures for the Ki in experiment [3], in experiment [4] and in experiment [5] were 0.3 nM, 0.7 nM and 1.6 nM, respectively.
In the case of `CNC(=O)N/C=C/c1cc(OC)ccc1OC`, in experiment [5], the Ki was above 1000 nM.
The same measure, in the same setting: then `COc1ccc2[nH]cc(CCNC(C)=O)c2c1` [MELATONIN], with 0.54 nM.
Consider `COc1ccc(OC)c([C@@H]2C[C@@H]2NC(C)=O)c1` (racemic), for which the Ki in experiment [5] is above 1000 nM.
As to `COc1ccc2ccc(OC)c([C@@H]3C[C@H]3NC(C)=O)c2c1` (racemic), in the experiment filed under Xenopus laevis [1], the “fold change (FC)” value was determined as 264. Also, the EC50 in the experiment filed under Xenopus laevis [2] is 0.01 nM. Moreover, the Ki worked out at 0.06 nM in experiment [3], 0.2 nM in experiment [4] and 0.46 nM in experiment [5].
In the case of `COc1ccc2ccc(OC)c(/C=C/NC(C)=O)c2c1`, in the experiment listed under Xenopus laevis [6], the “Ratio EC50” value is recorded as 1000. The “fold change (FC)” value in the experiment listed under Xenopus laevis [1] was 3473. Besides, the EC50 in the experiment filed under Xenopus laevis [2] worked out at 0.00076 nM. The Ki in experiment [3] was 0.03 nM; in experiment [4] it was 0.07 nM; in experiment [5], 0.012 nM.
For the compound `COc1ccc2ccccc2c1[C@@H]1C[C@H]1NC(C)=O` (racemic), in the experiment listed under Xenopus laevis [1], the “fold change (FC)” value amounted to 0.025. The EC50 in the experiment filed under Xenopus laevis [2] was 101 nM. For the same compound, the inhibitory constant (Ki) in experiment [3] was 3.7 nM; in experiment [4], 2.6 nM; in experiment [5], 15 nM.
In the case of `COc1ccccc1/C=C/NC(C)=O`, the Ki in experiment [5] was above 1000 nM.
`CC(=O)N/C=C/c1cccc2ccccc12`: the “fold change (FC)” value in the experiment listed under Xenopus laevis [1] is listed as 0.0031. Also, the EC50 in the experiment filed under Xenopus laevis [2] was determined as 854 nM. Besides, the results for the Ki in experiment [3] and in experiment [4] were 6.7 nM and 1.4 nM, respectively.
The compound `COc1cccc(/C=C/NC(C)=O)c1` came in with a Ki in experiment [5] of 803 nM.
In the case of `CC(=O)N[C@@H]1C[C@H]1c1cccc2ccccc12` (racemic), the EC50 in the experiment listed under Xenopus laevis [2] is above 10000 nM. Moreover, the Ki in experiment [3] amounted to 19 nM; in experiment [4], 6.8 nM; in experiment [5], 128 nM.
With `CNC(=O)N/C=C/c1c(OC)ccc2ccccc12`, the Ki came to 3.1 nM in experiment [3], 6.5 nM in experiment [4] and 36.6 nM in experiment [5].
On to `CNC(=O)N/C=C/c1cccc2ccc(OC)cc12`, for which the affinity in experiment [5] corresponds to a Ki of 0.44 nM.
For the compound `COc1ccc2cccc(/C=C/NC(C)=O)c2c1`, the “fold change (FC)” value in the experiment listed under Xenopus laevis [1] is given as 6.1. The EC50 in the experiment listed under Xenopus laevis [2] is 0.035 nM. For the same compound, the Ki is 0.04 nM in experiment [3], 0.03 nM in experiment [4] and 0.16 nM in experiment [5].
With `CNC(=O)N/C=C/c1c(OC)ccc2ccc(OC)cc12`, the Ki in experiment [3] turned out to be 0.2 nM; in experiment [4] it was 0.3 nM; in experiment [5], 0.08 nM.
Compound `COc1cccc([C@@H]2C[C@H]2NC(C)=O)c1` (racemic) had a Ki in experiment [5] of 93 nM.
With `CNC(=O)N/C=C/c1ccccc1OC`, the Ki in experiment [3] and in experiment [4] was above 1000 nM in each case.
`COc1ccccc1[C@@H]1C[C@H]1NC(C)=O` (racemic): the inhibition constant (Ki) in experiment [5] was above 1000 nM.
With `COc1ccc(OC)c(/C=C/NC(C)=O)c1`, in experiment [5], the affinity corresponds to a Ki of 283 nM.
For the compound `CNC(=O)N/C=C/c1cccc2ccccc12`, the Ki in experiment [3] amounted to 25 nM; in experiment [4], 15 nM; in experiment [5] it was 139 nM.
In the case of `COc1ccc(OC)c([C@@H]2C[C@H]2NC(C)=O)c1` (racemic), the Ki came out at 87 nM in experiment [3], 86 nM in experiment [4] and 130 nM in experiment [5].
On to `COc1ccc2ccccc2c1/C=C/NC(C)=O`, for which the “fold change (FC)” value in the experiment listed under Xenopus laevis [1] was determined as 0.028. The EC50 in the experiment filed under Xenopus laevis [2] was determined as 93.5 nM. For the same compound, the Ki in experiment [3] came to 0.1 nM; in experiment [4], 0.09 nM; in experiment [5], 4.6 nM.
For the compound `COc1ccc2cccc(CCNC(C)=O)c2c1` [AGOMELATINE], the EC50 in the experiment listed under Xenopus laevis [2] is 0.35 nM. Also, in experiment [5], the Ki is 0.67 nM.
